In PubChem BioAssay (NCI):
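Growth conditions: 96-well plates. Treatment: test compound, 48 hours, 5 concentrations. Analysis: linear interpolation between bracketing concentrations; unreached endpoints set to highest concentration. GI50: concentration for 50% inhibition of growth. Definition used: TGI = concentration required for complete inhibition of growth.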

Key:
Experiment in all cases: NCI-60 cell line screen, 48 h
786-0 renal = system: 786-0 renal
A498 renal = system: A498 renal
COLO 205 colon = system: COLO 205 colon
HCC-2998 colon = system: HCC-2998 colon
HOP-92 NSCLC = system: HOP-92 NSCLC
SF-268 CNS = system: SF-268 CNS
SK-MEL-2 melanoma = system: SK-MEL-2 melanoma
TK-10 renal = system: TK-10 renal
NCI/ADR-RES ovarian = system: NCI/ADR-RES ovarian
PC-3 prostate = system: PC-3 prostate

| Compound | GI50 (786-0 renal) [µM] | TGI (786-0 renal) [µM] | GI50 (A498 renal) [µM] | TGI (A498 renal) [µM] | GI50 (COLO 205 colon) [µM] | TGI (COLO 205 colon) [µM] | GI50 (HCC-2998 colon) [µM] | TGI (HCC-2998 colon) [µM] | TGI (HOP-92 NSCLC) [µM] | GI50 (SF-268 CNS) [µM] | TGI (SF-268 CNS) [µM] | GI50 (SK-MEL-2 melanoma) [µM] | TGI (SK-MEL-2 melanoma) [µM] | GI50 (TK-10 renal) [µM] | TGI (TK-10 renal) [µM] | TGI (NCI/ADR-RES ovarian) [µM] | TGI (PC-3 prostate) [µM] | GI50 (HOP-92 NSCLC) [µM] | GI50 (NCI/ADR-RES ovarian) [µM] | GI50 (PC-3 prostate) [µM] |
| --- | --- | --- | --- | --- | --- | --- | --- | --- | --- | --- | --- | --- | --- | --- | --- | --- | --- | --- | --- | --- |
| COc1cc(C(C)c2cc3c(cc2OCCOCCOc2cc4c(cc2C(C)c2cc(OC)c(OC)c(OC)c2)OCO4)OCO3)cc(OC)c1OC (centres undefined) | > 100 | > 100 | > 100 | > 100 | > 100 | > 100 | > 100 | > 100 | > 100 | > 100 | > 100 | > 100 | > 100 | > 100 | > 100 | – | – | – | – | – |
| [O-]c1c(-c2ccccc2)[se]c(-c2ccccc2)[n+]1-c1ccccc1 | – | 22.5 | – | 26.7 | – | 31.3 | – | 19.3 | 38.1 | – | 21.6 | – | 19.8 | – | 20.6 | – | – | – | – | – |
| S=C1SC2(CCCCCC2)NC2=C1CCCCC2 | – | > 100 | – | – | – | 35.8 | – | > 100 | 67.3 | – | > 100 | – | 47.4 | – | > 100 | > 100 | > 100 | – | – | – |
| O=C(O/N=C1/CCC/C1=C\c1ccccc1)c1ccc(Cl)cc1 | – | > 100 | – | > 100 | – | > 100 | – | > 100 | > 100 | – | > 100 | – | > 100 | – | > 100 | – | – | – | – | – |
| O=c1c2ccccc2c(C=NCCNCCO)c2oc3ccccc3n12 | 12.4 | 24.9 | – | – | 3.27 | 15.8 | 13.1 | 25.8 | 26.9 | 3.63 | 15.8 | 21.3 | 50.6 | 2.73 | 9.61 | 26.7 | 34.1 | 11.7 | 13.8 | 13.9 |
| COc1cc2c(C#N)n3c(c2cc1OC)C(=O)C(c1ccccc1)Oc1ccccc1-3 (centres undefined) | 5.7 | 39.1 | 1.85 | 9.15 | – | – | > 100 | > 100 | 5.52 | 3.32 | > 100 | – | – | 3.35 | 21.3 | > 100 | – | 1.46 | 3.05 | – |
| CP(=O)(CCSc1ccccc1)c1ccccc1 (centres undefined) | – | > 100 | – | > 100 | – | > 100 | – | > 100 | > 100 | – | > 100 | – | – | – | > 100 | – | – | – | – | – |
| CCC(=O)[O-].CCC(=O)[O-].N.N.N.N.[Co+3].[O-][Cl+3]([O-])([O-])[O-] | > 100 | > 100 | > 100 | > 100 | > 100 | > 100 | > 100 | > 100 | > 100 | > 100 | > 100 | > 100 | > 100 | > 100 | > 100 | – | – | 27.2 | – | – |
| CC(=O)[CH-]C(=O)c1ccccc1.CC(=O)[CH-]C(=O)c1ccccc1.[O-]c1ccc(O)cc1.[O-]c1ccc(O)cc1.[Ti+4] | 13.2 | 26 | 18.4 | 37.3 | 18.2 | 32.6 | 16.1 | 33.6 | 28.9 | 14 | 33.9 | 14.6 | 28.2 | 27.7 | 59.2 | – | – | 14.1 | – | – |
| N#CC(C(=N/NC(N)=S)/C(=N\NC(N)=S)C(C#N)c1ccccc1)c1ccccc1 (centres undefined) | – | > 10 | – | > 10 | – | > 10 | – | > 10 | > 10 | – | > 10 | – | > 10 | – | > 10 | – | – | – | – | – |
| c1ccc2c(c1)[Se]c1ccccc1[Se]2 | – | > 100 | – | > 100 | – | > 100 | – | – | 76.3 | – | > 100 | – | > 100 | – | > 100 | – | – | – | – | – |
| O=C(/C=C/c1ccccc1)c1ccc(O)c(CN2CCN(c3cc4c(cc3F)c(=O)c(C(=O)O)cn4C3CC3)CC2)c1 | 0.961 | > 100 | 0.941 | 4.93 | 3.86 | 74.5 | 3.11 | 53.6 | – | 2.53 | > 100 | 3.3 | > 100 | 6.37 | > 100 | > 100 | > 100 | – | 7.86 | 0.897 |
| NC(CCc1nc(-c2ccccc2)cs1)C(=O)O (centres undefined) | – | > 100 | – | > 100 | – | > 100 | – | > 100 | > 100 | – | – | – | – | – | > 100 | – | – | – | – | – |
| O=S(O)CCCCSSCCCCS(=O)(O)=S | – | > 100 | – | > 100 | – | > 100 | – | > 100 | – | – | > 100 | – | > 100 | – | > 100 | – | – | – | – | – |
| COC(=O)c1c(C(=O)OC)c(C(=O)OC)c(C(=O)OC)c1C(=O)OC | – | > 100 | – | – | – | > 100 | – | > 100 | > 100 | – | > 100 | – | > 100 | – | > 100 | – | – | – | – | – |
| CCC1N2CCCCC2[C@@H]2c3[nH]c4ccccc4c3CCN12 (some centres undefined) | – | > 100 | – | > 100 | – | > 100 | – | > 100 | > 100 | – | > 100 | – | > 100 | – | > 100 | – | – | – | – | – |
| Cc1cc(Cl)ccc1N1C(=O)C(=O)C(c2nc3ccccc3s2)/C(=N\NC(=O)c2ccccc2O)C1=O (centres undefined) | – | > 100 | – | > 100 | – | > 100 | – | > 100 | > 100 | – | > 100 | – | > 100 | – | > 100 | – | – | – | – | – |
| CC(=O)C1C(=O)C(=O)N(c2ccc(Cl)cc2C)C1=O (centres undefined) | – | > 100 | – | > 100 | – | > 100 | – | > 100 | > 100 | – | > 100 | – | > 100 | – | > 100 | – | – | – | – | – |
| COc1cc([N+](=O)[O-])c(S(=O)(=O)O)cc1-n1nc(-c2ccccc2)n[n+]1-c1cc(S(=O)(=O)[O-])c([N+](=O)[O-])cc1OC | – | > 100 | – | – | – | > 100 | – | > 100 | – | – | > 100 | – | > 100 | – | – | > 100 | > 100 | – | – | – |
| CC(C)[C@H](COC(C)(C)C)N=CN1CSc2ccccc21 | – | > 100 | – | > 100 | – | 39.4 | – | > 100 | 41.9 | – | > 100 | – | > 100 | – | > 100 | – | – | – | – | – |
| NC(N)=NS(=O)(=O)c1ccc(NC(=O)c2ccc(Cl)c3c(Nc4ccc(S(=O)(=O)N=C(N)N)cc4)c4ccccc4nc23)cc1 | – | > 100 | – | > 100 | – | > 100 | – | – | 79.9 | – | > 100 | – | > 100 | – | – | – | – | – | – | – |
